Values of other authors, collected in paper PMC3807243 (Biochemical pharmacology, 2012).
Read-outs that look alike come from different tables or passages of the source.

Tested on: EphB4
Conditions: ref [38]–[40]

Row | Sequence | IC50 (read-out: IC50 for inhibition of EphB4 binding) | Binding affinity for EphB4 | IC50 (read-out: IC50 for inhibition of ephrin-B2 binding to EphB4)
1 | TNYLFSPNGPIARAW [TNYL-RAW] | ~0.015 µM | low nanomolar | –
2 | TNYLFSPNGPIA | – | – | ~150 µM
